6 compounds from the NIST ThermoML archive (doi:10.1021/je050520f) can be followed below.

A short description of data set [1]: refractive index (Na D-line) (dimensionless). Conditions: 101.33 kPa, Liquid.
For data set [2] the following is noted: 101.33 kPa, Liquid.

± gives the expanded uncertainty stated by the source.

On to `NC1CCCCC1` [cyclohexylamine], for which the refractive index (usually the speed of light in vacuum divided by its phase velocity in the sample) in data set [1] (288.15 K, Abbe refractometer) came out at 1.4624 ± 0.0005. In addition, the mass density (commonly mass per unit of volume) in data set [2] (303.15 K) is given as 858.2 ± 0.2 kg/m3.

With `CCCCCCC` [heptane], in data set [1] (298.15 K, Abbe refractometer), the refractive index was 1.3853 ± 0.0003. In data set [2] (298.15 K), the mass density was 679.43 ± 0.36 kg/m3.

For the compound `CCCCCCCC` [octane], the refractive index in data set [1] (298.15 K) was found to be 1.3946 ± 0.0007. Moreover, the mass density in data set [2] (298.15 K) stood at 698.49 ± 0.31 kg/m3.

For the compound `CCCc1ccccc1` [propylbenzene], the refractive index in data set [1] (298.15 K, Abbe refractometer) was 1.4901 ± 0.0006. The mass density in data set [2] (298.15 K) was determined as 860.79 ± 0.28 kg/m3.

Take `Cc1ccccc1` [toluene]: in data set [1] (293.15 K, Abbe refractometer), the refractive index is 1.496 ± 0.0006. The mass density in data set [2] (293.15 K) is 866.78 ± 0.19 kg/m3.

For the compound `O` [water], in data set [1] (293.15 K, Abbe refractometer), the refractive index is listed as 1.3336 ± 0.0005.
